# In the supplement of paper PMC11451515:
# Test system: P12-Ichikawa
# Experiment: cell viability relative to DMSO control; higher = less cytotoxic
# Settings: 48 h
# In short: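 Library compounds in DMSO were pin-dosed into 1536-well plates (5 μl) holding NOMO1 or SEM (500 cells/well) or P12-Ichikawa (1000 cells/well) leukemia cells, across an 11-point threefold series of 47 μM to 0.79 nM. Each cell line had been adapted for at least four passages in each medium. CellTiter-Glo One luminescence was read after 48 h at 37°C. Viability is the per-plate percentage relative to DMSO wells, with cell-free wells as background.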
# [1] = HPLM + 10% dialyzed FBS, 0.000781 µM
# [2] = HPLM + 10% dialyzed FBS, 0.00234 µM
# [3] = HPLM + 10% dialyzed FBS, 0.00702 µM
# [4] = HPLM + 10% dialyzed FBS, 0.0211 µM
# [5] = HPLM + 10% dialyzed FBS, 0.0632 µM
# [6] = HPLM + 10% dialyzed FBS, 0.19 µM
# [7] = HPLM + 10% dialyzed FBS, 0.569 µM
# [8] = HPLM + 10% dialyzed FBS, 1.71 µM
# [9] = HPLM + 10% dialyzed FBS, 5.12 µM
# [10] = HPLM + 10% dialyzed FBS, 15.4 µM
# [11] = HPLM + 10% dialyzed FBS, 46.1 µM
# [12] = RPMI 5 mM glucose + 10% FBS, 0.000781 µM
# [13] = RPMI 5 mM glucose + 10% FBS, 0.00234 µM
# [14] = RPMI 5 mM glucose + 10% FBS, 0.00702 µM
# [15] = RPMI 5 mM glucose + 10% FBS, 0.0211 µM
# [16] = RPMI 5 mM glucose + 10% FBS, 0.0632 µM
# [17] = RPMI 5 mM glucose + 10% FBS, 0.19 µM
# [18] = RPMI 5 mM glucose + 10% FBS, 0.569 µM
# [19] = RPMI 5 mM glucose + 10% FBS, 1.71 µM
# [20] = RPMI 5 mM glucose + 10% FBS, 5.12 µM
# [21] = RPMI 5 mM glucose + 10% FBS, 15.4 µM
# [22] = RPMI 5 mM glucose + 10% FBS, 46.1 µM
# [23] = RPMI 5 mM glucose + 10% dialyzed FBS, 0.000781 µM
# [24] = RPMI 5 mM glucose + 10% dialyzed FBS, 0.00234 µM
# [25] = RPMI 5 mM glucose + 10% dialyzed FBS, 0.00702 µM
# [26] = RPMI 5 mM glucose + 10% dialyzed FBS, 0.0211 µM
# [27] = RPMI 5 mM glucose + 10% dialyzed FBS, 0.0632 µM
# [28] = RPMI 5 mM glucose + 10% dialyzed FBS, 0.19 µM
# [29] = RPMI 5 mM glucose + 10% dialyzed FBS, 0.569 µM
# [30] = RPMI 5 mM glucose + 10% dialyzed FBS, 1.71 µM
# [31] = RPMI 5 mM glucose + 10% dialyzed FBS, 5.12 µM
# [32] = RPMI 5 mM glucose + 10% dialyzed FBS, 15.4 µM
# [33] = RPMI 5 mM glucose + 10% dialyzed FBS, 46.1 µM
Compound,cell viability [1],cell viability [2],cell viability [3],cell viability [4],cell viability [5],cell viability [6],cell viability [7],cell viability [8],cell viability [9],cell viability [10],cell viability [11],cell viability [12],cell viability [13],cell viability [14],cell viability [15],cell viability [16],cell viability [17],cell viability [18],cell viability [19],cell viability [20],cell viability [21],cell viability [22],cell viability [23],cell viability [24],cell viability [25],cell viability [26],cell viability [27],cell viability [28],cell viability [29],cell viability [30],cell viability [31],cell viability [32],cell viability [33]
CCC\C1=C\C(=O)NC(=S)N1,99.4%,107%,109%,111%,120%,120%,94.2%,110%,87.6%,38.4%,8.65%,107%,112%,110%,118%,119%,112%,85%,104%,78.9%,40.8%,7.58%,102%,105%,103%,115%,118%,119%,99.7%,113%,83.9%,68.3%,9.42%
Cn1cc(/C=C2\C(=O)Nc3cccnc32)c2ccccc21,116%,124%,127%,121%,133%,133%,124%,134%,126%,15.5%,16.6%,,,,,,,,,,,,,,,,,,,,,,
CC/1=C(/C(CC(=O)N1)C2=CC=C(C=C2)C(F)(F)F)C(=O)NC3=C(F)C=C4[NH]N=CC4=C3 (configuration not stated),93.5%,103%,101%,102%,101%,99.1%,100%,97.3%,98.4%,58.6%,44.6%,96.2%,104%,102%,100%,108%,99.9%,104%,98.3%,98.3%,66.9%,62%,95.3%,99.8%,99.9%,101%,104%,105%,107%,96.9%,107%,66.5%,47.6%
Cc1cc(C(=O)N2CCN(c3cccc(Cl)c3)CC2)n(-c2ccccc2)n1,109%,107%,103%,107%,103%,103%,105%,50.2%,23.9%,10.1%,12.5%,105%,113%,102%,105%,101%,90.2%,101%,80.5%,36.8%,10.4%,16.6%,101%,92.8%,105%,104%,103%,91.2%,95.5%,70.1%,40.9%,20.5%,20.4%
COc1cc([C@H]2Oc3cc([C@H]4Oc5cc(O)cc(O)c5C(=O)[C@@H]4O)ccc3O[C@@H]2CO)ccc1O,108%,118%,106%,109%,118%,119%,112%,110%,105%,99.8%,99.8%,113%,112%,125%,109%,113%,104%,98.9%,112%,116%,101%,94.2%,102%,109%,115%,105%,111%,106%,103%,101%,96.7%,100%,90.1%
COC(=O)C1C2CC3c4[nH]c5cc(OC)ccc5c4CCN3CC2CC(OC(=O)c2cc(OC)c(OC)c(OC)c2)C1OC (configuration not stated),106%,109%,112%,107%,115%,111%,101%,105%,110%,107%,102%,115%,120%,121%,114%,107%,109%,118%,112%,111%,113%,91%,121%,106%,119%,114%,104%,113%,105%,106%,107%,99.5%,102%
N[S+](=O)([O-])c1cccc2c1C(=O)c1cccc(O)c1C2=O,108%,106%,115%,111%,121%,114%,114%,118%,105%,80.9%,4.7%,102%,105%,108%,112%,116%,123%,106%,111%,96.7%,102%,3.97%,98.9%,95.8%,110%,106%,113%,121%,104%,112%,94.3%,92.8%,3.3%
N#Cc1ccnc(Nc2cc(C3CCN(C4COC4)CC3)cc(N3CCC(F)(F)C3)n2)c1,97.8%,99.8%,104%,105%,99.5%,104%,100%,108%,107%,88.2%,36.1%,105%,104%,101%,101%,102%,99.7%,108%,115%,108%,62.8%,32.2%,108%,104%,101%,103%,109%,104%,106%,108%,111%,56.8%,36.8%
NC(=O)c1cccc2nc(-c3ccc([C@H]4CCCN4)cc3F)[nH]c12,99.9%,110%,105%,114%,115%,111%,120%,114%,105%,95.8%,84.2%,97%,97.6%,100%,105%,114%,113%,123%,112%,109%,103%,70.1%,99.5%,105%,110%,119%,109%,119%,121%,116%,120%,107%,65.1%
O=C(Oc1ccc([N+](=O)[O-])cc1)N1CCC(C(O)(c2ccc3c(c2)OCO3)c2ccc3c(c2)OCO3)CC1,90%,95.5%,90.2%,98.7%,92%,99.4%,102%,91.4%,93.6%,79.3%,69.3%,91.8%,85%,90.3%,99.3%,91.3%,91.9%,99.3%,90.3%,68.5%,93.7%,93.1%,75.9%,88.5%,86.3%,88.6%,90.2%,90.3%,86.4%,91.8%,73.5%,91.1%,84.9%
CN(C)CCOc1ccc(-c2nc(-c3ccncc3)c(-c3ccc4c(c3)CC/C4=N\O)[nH]2)cc1,103%,107%,106%,100%,103%,109%,106%,100%,93.7%,90.6%,65.9%,113%,108%,109%,110%,109%,107%,109%,103%,94.5%,96.4%,65.6%,109%,104%,114%,101%,106%,105%,109%,104%,96.8%,84%,66.7%
CN(C)CC[C@H](c1ccc(Cl)cc1)c1ccccn1,83.7%,78.9%,84.2%,84.8%,90.7%,90.3%,85.8%,90.9%,87.1%,86%,89.7%,76.9%,78%,75.6%,78.9%,80.8%,80.8%,90.4%,85.2%,84.1%,81.2%,82.3%,69.9%,81.6%,73.6%,83.9%,86.2%,80.9%,78.1%,78.8%,76.9%,82.3%,77.5%
c1ccc(CNc2nc(N3CCOc4ccccc43)nc3c2CCCC3)cc1,101%,102%,107%,108%,117%,99.5%,128%,115%,109%,107%,107%,102%,99.9%,100%,106%,105%,110%,111%,106%,108%,100%,96.9%,102%,112%,107%,114%,110%,105%,110%,116%,105%,103%,104%
CCCCC(C=O)NC(=O)C(CC(C)C)NC(=O)OCc1ccccc1 (configuration not stated),90.9%,94.3%,95.8%,90.7%,95.6%,91.8%,91.1%,85.7%,80.6%,81%,70.5%,88%,91.3%,90.3%,82.1%,91.6%,84.2%,80.6%,82.3%,78.3%,73.7%,51.7%,86.1%,85.4%,83%,86.9%,79.6%,84.8%,81.3%,76.7%,71.3%,70.6%,53.7%
CCN(CC)CCCCNc1ncc2c(n1)N(C)C(=O)N(c1c(Cl)c(OC)cc(OC)c1Cl)C2,118%,121%,120%,118%,117%,115%,113%,121%,114%,105%,11.8%,,,,,,,,,,,,120%,110%,122%,119%,120%,117%,106%,103%,121%,90.9%,22.8%
